Source: patent US20230151025A1, “SUBSTITUTED THIAZOLOPYRIDINES, SALTS THEREOF AND THEIR USE AS HERBICIDALLY ACTIVE SUBSTANCES” (Bayer Aktiengesellschaft, priority 2020, published 2023)

What was measured:
Format in all cases: in vivo
[1] = test system: Abutilon theophrasti (ABUTH); test: Herbicidal pre-emergence action (C), 320 g/ha; conditions: ca. 3 weeks
How it was run: (§1)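 Seeds sown in sandy loam and covered with soil; compounds formulated as WP or EC were sprayed onto the covering soil as aqueous suspension/emulsion with 0.5% additive at 600 l water/ha. Pots kept in greenhouse; damage graded visually after ca. 3 weeks versus untreated controls (0% = as control, 100% = plants dead).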

[2] = test system: Alopecurus myosuroides (ALOMY); test: Herbicidal pre-emergence action (C), 320 g/ha; conditions: ca. 3 weeks
How it was run: as §1

[3] = test system: Amaranthus retroflexus (AMARE); test: Herbicidal pre-emergence action (C), 320 g/ha; conditions: ca. 3 weeks
How it was run: as §1

[4] = test system: Echinochloa crus-galli (ECHCG); test: Herbicidal pre-emergence action (C), 320 g/ha; conditions: ca. 3 weeks
How it was run: as §1

Lolium rigidum (LOLRI) [5] = test: Herbicidal pre-emergence action (C), 320 g/ha; conditions: ca. 3 weeks
How it was run: as §1

[6] = test system: Matricaria inodora (MATIN); test: Herbicidal pre-emergence action (C), 320 g/ha; conditions: ca. 3 weeks
How it was run: as §1

[7] = test system: Polygonum convolvulus (POLCO); test: Herbicidal pre-emergence action (C), 320 g/ha; conditions: ca. 3 weeks
How it was run: as §1

Setaria viridis (SETVI) [8] = test: Herbicidal pre-emergence action (C), 320 g/ha; conditions: ca. 3 weeks
How it was run: as §1

Veronica persica (VERPE) [9] = test: Herbicidal pre-emergence action (C), 320 g/ha; conditions: ca. 3 weeks
How it was run: as §1

Avena fatua = test: Herbicidal pre-emergence action (C), 320 g/ha; conditions: ca. 3 weeks
Description: Seeds of mono- and dicotyledonous weed plants and crop plants were sown, in plastic or organic planting pots, in sandy loam and covered with soil. The compounds according to the invention, formulated in the form of wettable powders (WP) or as emulsifiable concentrates (EC), were applied to the surface of the covering soil as aqueous suspension or emulsion, with the addition of 0.5% of an additive, at an application rate of 600 l of water/ha (converted).
Following treatment, the pots were placed in a greenhouse and kept under optimum growth conditions for the test plants. The visual grading of the damage to the test plants was carried out after ca. 3 weeks in comparison to untreated controls (herbicidal effect in percent (%): 100% effect=plants have died off, 0% effect=as control plants).
Tables C1 to C13 below show the effects of selected compounds of the general formula (I) according to table 1 on various harmful plants and an application rate corresponding to 320 g/ha obtained by the experimental procedure mentioned above.

[10] = test system: Alopecurus myosuroides (ALOMY); test: Herbicidal post-emergence action (D), 320 g/ha; conditions: ca. 3 weeks
How it was run: (§2)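 Post-emergence greenhouse test. Sandy loam; spray at single-leaf stage (2–3 wk after sowing); WP or EC in water + 0.5% additive, 600 l/ha. Visual rating ~3 wk post-spray, % effect vs untreated (0 = control, 100 = dead).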

[11] = test system: Amaranthus retroflexus (AMARE); test: Herbicidal post-emergence action (D), 320 g/ha; conditions: ca. 3 weeks
How it was run: as §2

[12] = test system: Echinochloa crus-galli (ECHCG); test: Herbicidal post-emergence action (D), 320 g/ha; conditions: ca. 3 weeks
How it was run: as §2

[13] = test system: Polygonum convolvulus (POLCO); test: Herbicidal post-emergence action (D), 320 g/ha; conditions: ca. 3 weeks
How it was run: as §2

Setaria viridis (SETVI) [14] = test: Herbicidal post-emergence action (D), 320 g/ha; conditions: ca. 3 weeks
How it was run: as §2

[15] = test system: Abutilon theophrasti (ABUTH); test: Herbicidal pre-emergence action (A), 1280 g/ha; conditions: visual grading after ca. 3 weeks vs untreated controls, 100% = plants have died off, 0% = as control plants
How it was run: (§3)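 Pre-emergence soil-surface spray, 600 l/ha water, 0.5% additive, WP or EC formulation. Sandy loam, double sowing per pot, greenhouse under optimum growth. Visual % damage at ~3 wk vs untreated; 100% = plants died off.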

[16] = test system: Alopecurus myosuroides (ALOMY); test: Herbicidal pre-emergence action (A), 1280 g/ha; conditions: visual grading after ca. 3 weeks vs untreated controls, 100% = plants have died off, 0% = as control plants
How it was run: as §3

[17] = test system: Amaranthus retroflexus (AMARE); test: Herbicidal pre-emergence action (A), 1280 g/ha; conditions: visual grading after ca. 3 weeks vs untreated controls
How it was run: as §3

[18] = test system: Digitaria sanguinalis (DIGSA); test: Herbicidal pre-emergence action (A), 1280 g/ha; conditions: visual grading after ca. 3 weeks vs untreated controls, 100% = plants have died off, 0% = as control plants
How it was run: as §3

[19] = test system: Echinochloa crus-galli (ECHCG); test: Herbicidal pre-emergence action (A), 1280 g/ha; conditions: visual grading after ca. 3 weeks vs untreated controls, 100% = plants have died off, 0% = as control plants
How it was run: as §3

[20] = test system: Kochia scoparia (KCHSC; Bassia scoparia); test: Herbicidal pre-emergence action (A), 1280 g/ha; conditions: visual grading after ca. 3 weeks vs untreated controls
How it was run: as §3

Lolium rigidum (LOLRI) [21] = test: Herbicidal pre-emergence action (A), 1280 g/ha; conditions: visual grading after ca. 3 weeks vs untreated controls, 100% = plants have died off, 0% = as control plants
How it was run: as §3

[22] = test system: Matricaria inodora (MATIN); test: Herbicidal pre-emergence action (A), 1280 g/ha; conditions: visual grading after ca. 3 weeks vs untreated controls
How it was run: as §3

Poa annua (POAAN) [23] = test: Herbicidal pre-emergence action (A), 1280 g/ha; conditions: visual grading after ca. 3 weeks vs untreated controls, 100% = plants have died off, 0% = as control plants
How it was run: as §3

Setaria viridis (SETVI) [24] = test: Herbicidal pre-emergence action (A), 1280 g/ha; conditions: visual grading after ca. 3 weeks vs untreated controls
How it was run: as §3

Stellaria media (STEME) [25] = test: Herbicidal pre-emergence action (A), 1280 g/ha; conditions: visual grading after ca. 3 weeks vs untreated controls
How it was run: as §3

Veronica persica (VERPE) [26] = test: Herbicidal pre-emergence action (A), 1280 g/ha; conditions: visual grading after ca. 3 weeks vs untreated controls
How it was run: as §3

[27] = test system: Alopecurus myosuroides (ALOMY); test: Herbicidal post-emergence action (B), 1280 g/ha; conditions: rated visually after about 3 weeks vs untreated controls
How it was run: (§4)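 Percent activity is a visual score taken about 3 weeks after treatment, relative to untreated plants, where 100% means the plants died and 0% means no difference from controls. Plants were sprayed on green parts at the one-leaf stage with an aqueous suspension or emulsion containing 0.5% additive at 600 L/ha.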

[28] = test system: Amaranthus retroflexus (AMARE); test: Herbicidal post-emergence action (B), 1280 g/ha; conditions: rated visually after about 3 weeks vs untreated controls
How it was run: as §4

[29] = test system: Echinochloa crus-galli (ECHCG); test: Herbicidal post-emergence action (B), 1280 g/ha; conditions: rated visually after about 3 weeks vs untreated controls
How it was run: as §4

[30] = test system: Kochia scoparia (KCHSC; Bassia scoparia); test: Herbicidal post-emergence action (B), 1280 g/ha
How it was run: as §4

Lolium rigidum (LOLRI) [31] = test: Herbicidal post-emergence action (B), 1280 g/ha; conditions: one-leaf stage, rated after about 3 weeks vs untreated controls, 100% activity = the plants have died, 0% = like control plants
How it was run: as §4

Poa annua (POAAN) [32] = test: Herbicidal post-emergence action (B), 1280 g/ha; conditions: rated visually after about 3 weeks vs untreated controls
How it was run: as §4

Stellaria media (STEME) [33] = test: Herbicidal post-emergence action (B), 1280 g/ha
How it was run: as §4

Veronica persica (VERPE) [34] = test: Herbicidal post-emergence action (B), 1280 g/ha
How it was run: as §4

Veronica persica (VERPE) [35] = test: Herbicidal post-emergence action (D), 320 g/ha; conditions: ca. 3 weeks
How it was run: as §2

Fc1ccccc1-c1nc2ncsc2cc1Br [Example I-012]
100%: herbicidal effect ALOMY [2] | herbicidal effect ECHCG [4] | herbicidal effect LOLRI (Lolium rigidum (LOLRI) [5]) | herbicidal effect SETVI (Setaria viridis (SETVI) [8]) | herbicidal effect AVEFA (Avena fatua)
90%: herbicidal effect AMARE [3] | herbicidal effect MATIN [6] | herbicidal effect ALOMY [10] | herbicidal effect AMARE [11] | herbicidal effect POLCO [13] | herbicidal effect SETVI (Setaria viridis (SETVI) [14])
80%: herbicidal effect ABUTH [1] | herbicidal effect POLCO [7] | herbicidal effect VERPE (Veronica persica (VERPE) [9]) | herbicidal effect ECHCG [12]

Cc1cccc(F)c1-c1nc2ncsc2cc1Cl [Example I-013]
80%: herbicidal effect POLCO [7] | herbicidal effect VERPE (Veronica persica (VERPE) [9]) | herbicidal effect ALOMY [10] | herbicidal effect AMARE [11] | herbicidal effect VERPE (Veronica persica (VERPE) [35])
100%: ALOMY, herbicidal effect in percent (%) [16] | DIGSA, herbicidal effect in percent (%) [18] | ECHCG, herbicidal effect in percent (%) [19] | herbicidal effect KCHSC [20] | LOLRI, herbicidal effect in percent (%) (Lolium rigidum (LOLRI) [21]) | POAAN, herbicidal effect in percent (%) (Poa annua (POAAN) [23]) | herbicidal effect SETVI (Setaria viridis (SETVI) [24]) | herbicidal effect STEME (Stellaria media (STEME) [25]) | herbicidal activity ALOMY [27] | herbicidal activity AMARE [28] | herbicidal activity ECHCG [29] | herbicidal effect KCHSC [30] | herbicidal effect STEME (Stellaria media (STEME) [33]) | herbicidal effect VERPE (Veronica persica (VERPE) [34]) | herbicidal effect ALOMY [2] | herbicidal effect ECHCG [4] | herbicidal effect LOLRI (Lolium rigidum (LOLRI) [5]) | herbicidal effect SETVI (Setaria viridis (SETVI) [8])
90%: ABUTH, herbicidal effect in percent (%) [15] | herbicidal effect AMARE [17] | herbicidal effect MATIN [22] | herbicidal effect VERPE (Veronica persica (VERPE) [26]) | LOLRI, activity rated visually (%) (Lolium rigidum (LOLRI) [31]) | herbicidal activity POAAN (Poa annua (POAAN) [32]) | herbicidal effect AMARE [3]
